Measurements published in ChEMBL document CHEMBL1150636, “Antiemetic principles of Alpinia officinarum” (2002).

Each compound was assayed on Gallus gallus (assay: Antiemetic activity against copper sulphate-induced emesis in young chicks assessed as decrease in retching at 50 mg/kg, ip measured for 10 mins). Conditions: route intraperitoneal.
Assay type: functional
`COc1cc(CCC(=O)C[C@H](O)CCc2ccc(O)cc2)ccc1O` gave an inhibition in vivo at 50 mg/kg of 12.4%. `COc1cc(CC[C@@H](O)CC(=O)CCc2ccc(O)cc2)ccc1O` showed an inhibition in vivo at 50 mg/kg of 38.3%. `CCCCCCCCCCCCCCCC(=O)OC[C@H]1O[C@@H](O[C@H]2CC[C@@]3(C)C(=CC[C@H]4[C@@H]5CC[C@H]([C@H](C)CC[C@H](CC)C(C)C)[C@@]5(C)CC[C@@H]43)C2)[C@H](O)[C@@H](O)[C@@H]1O` gave an inhibition in vivo at 50 mg/kg of 50.9%. With `COc1cc(CCC(O)CC(O)CCc2ccccc2)ccc1O` (stereo not drawn) the inhibition in vivo at 50 mg/kg was 45.7%. `Oc1ccc(CC[C@@H](O)C[C@H](O)CCc2ccccc2)cc1` gave an inhibition in vivo at 50 mg/kg of 37.7%.

These compounds were tested on Gallus gallus (assay: Antiemetic activity against copper sulfate-induced emesis in young chicks assessed as decrease in retching at 20 mg/kg, ip measured for 10 mins). Conditions: route intraperitoneal.
Assay type: functional
`O=c1c(O)c(-c2ccccc2)oc2cc(O)cc(O)c12` [GALANGIN] showed an inhibition in vivo at 20 mg/kg of 25.4%. `COc1ccc(-c2oc3cc(O)cc(O)c3c(=O)c2O)cc1` [KAEMPFERIDE] showed an inhibition in vivo at 20 mg/kg of 63.3%. Work on `O=C(CCc1ccccc1)CC(O)CCc1ccc(O)cc1` (stereo not drawn) yielded an inhibition in vivo at 20 mg/kg of 71%.
